Data reported in patent US20240148821A1, “PHARMACEUTICAL USE OF CYCLIC PEPTIDE COMPOUND” (CHUGAI SEIYAKU KABUSHIKI KAISHA, priority 2021, published 2024).
Bridge positions count the residues as written; N and C are the ends. Square brackets hold non-standard residues; d marks the D form. Peptide text beside a SMILES is read from it. * marks the point of attachment. hPhe(3-Cl-4-CF3) = N[C@@H](CCc1ccc(C(F)(F)F)c(Cl)c1)C(=O)O; hPhe(4-CF3) = N[C@@H](CCc1ccc(C(F)(F)F)cc1)C(=O)O; NMeNle(6-CHF2) = CN[C@@H](CCCCC(F)F)C(=O)O; NMePhe(2-Cl) = CN[C@@H](Cc1ccccc1Cl)C(=O)O; NMeGly(cPent) = CN[C@H](C(=O)O)C1CCCC1; NMe4Pal = CN[C@@H](Cc1ccncc1)C(=O)O; NMeCha = CN[C@@H](CC1CCCCC1)C(=O)O; NEtLeu = CCN[C@@H](CC(C)C)C(=O)O; NMeChg = CN[C@H](C(=O)O)C1CCCCC1; NMeT = CN[C@H](C(=O)O)[C@@H](C)O; NMeD = CN[C@@H](CC(=O)O)C(=O)O; NMeL = CN[C@@H](CC(C)C)C(=O)O; NMeV = CN[C@H](C(=O)O)C(C)C; d(β3hA) = C[C@@H](N)CC(=O)O; Azetidin(1-yl) = C1CN(*)C1; Morpholide = C1CN(*)CCO1; NMeA = CN[C@@H](C)C(=O)O; Piperidide = C1CCN(*)CC1; dNMeA = CN[C@H](C)C(=O)O; Ac5c = NC1(C(=O)O)CCCC1; Aze = O=C(O)[C@@H]1CCN1; Aib = CC(C)(N)C(=O)O; Bn = c1ccc(C*)cc1; Sar = CNCC(=O)O

The molecules below were run against protein-protein interaction between Kras and SOS1 (biotin-tagged human Kras loaded with GDP, His-tagged human SOS1) (Homo sapiens (Human), UniProt P01116, G12D) (assay: Protein-protein interaction inhibition between Kras and SOS1 (KrasG12D-SOS PPI) using AlphaScreen). Conditions: AlphaScreen; biotin-tagged human Kras loaded with GDP, His-tagged human SOS1; read-out: KRAS G12D-SOS PPI IC50.
Assay type: biochemical

First: CC[C@H](C)[C@@H]1NC(=O)[C@H](CC(C)C)N(C)C(=O)C[C@@H](C(=O)N2CCCCC2)N(C)C(=O)[C@H](C2CCCCC2)N(C)C(=O)C2(CCCC2)NC(=O)[C@H](Cc2ccncc2)N(C)C(=O)[C@H](CCc2ccc(C(F)(F)F)c(Cl)c2)NC(=O)CN(C)C(=O)[C@H](CC2CCCCC2)N(C)C(=O)CN(C)C(=O)CN(C)C1=O [Compound 36] ([NMeL]I[Sar][Sar][NMeCha][Sar][hPhe(3-Cl-4-CF3)][NMe4Pal][Ac5c][NMeChg][NMeD]-Piperidide; lactam N-11)
Second: CC[C@H](C)[C@@H]1NC(=O)[C@H](CC(C)C)N(CC)C(=O)C[C@@H](C(=O)N2CCC2)N(C)C(=O)[C@H](C2CCCC2)N(C)C(=O)C2(CCCC2)NC(=O)[C@@H]2CCCN2C(=O)[C@H](CCc2ccc(C(F)(F)F)c(Cl)c2)NC(=O)CN(C)C(=O)[C@H](CC2CCCCC2)N(C)C(=O)[C@@H]2CCN2C(=O)[C@H](C)N(C)C1=O [Compound 1198] ([NEtLeu]I[NMeA][Aze][NMeCha][Sar][hPhe(3-Cl-4-CF3)]P[Ac5c][NMeGly(cPent)][NMeD]-{Azetidin(1-yl)}; lactam N-11)
The IC50 of the first is 3.9-fold higher: 4.7 nM for the first, 1.2 nM for the second. The second is the more potent here.

Compared with `CC[C@H](C)[C@@H]1NC(=O)[C@H](CC(C)C)N(C)C(=O)C[C@@H](C(=O)N(C)C)N(C)C(=O)[C@H](C2CCCC2)N(C)C(=O)C2(CCCC2)NC(=O)[C@H](CC(=O)N(C)C)N(C)C(=O)[C@H](CCc2ccc(C(F)(F)F)c(Cl)c2)NC(=O)CN(C)C(=O)[C@H](CC2CCCCC2)N(C)C(=O)[C@@H]2CCN2C(=O)[C@H](C)N(C)C1=O` [Compound 2106, (3S,6S,9S,13S,16S,22S,25S,31S,34S)-25-[2-[3-chloro-4-(trifluoromethyl)phenyl]ethyl]-31-(cyclohexylmethyl)-16-cyclopentyl-22-[2-(dimethylamino)-2-oxo-ethyl]-9-isobutyl-N,N,3,4,10,14,17,23,29,32-decamethyl-6-[(1S)-1-methylpropyl]-2,5,8,11,15,18,21,24,27,30,33-undecaoxo-spiro[1,4,7,10,14,17,20,23,26,29,32-undecazabicyclo[32.2.0]hexatriacontane-19,1-cyclopentane]-13-carboxamide] ([NMeL]I[NMeA][Aze][NMeCha][Sar][hPhe(3-Cl-4-CF3)][NMeD](NMe2)[Ac5c][NMeGly(cPent)][NMeD]-NMe2; lactam N-11), `CC[C@H](C)[C@@H]1NC(=O)[C@H](CC(C)C)N(C)C(=O)C[C@@H](C(=O)N2CCOCC2)N(C)C(=O)[C@H](C2CCCC2)N(C)C(=O)C2(CCCC2)NC(=O)[C@@H]2CCCN2C(=O)[C@H](CCc2ccc(C(F)(F)F)c(Cl)c2)NC(=O)CN(C)C(=O)[C@H](CC2CCCCC2)N(C)C(=O)[C@@H]2CCN2C(=O)[C@H](C)NC1=O` [Compound 1137] ([NMeL]IA[Aze][NMeCha][Sar][hPhe(3-Cl-4-CF3)]P[Ac5c][NMeGly(cPent)][NMeD]-Morpholide; lactam N-11) is 2.3-fold higher in IC50: 2 nM for the first, 4.6 nM for the second.

Going from `CC[C@H](C)[C@@H]1NC(=O)[C@H](C)N(C)C(=O)C[C@@H](C)NC(=O)[C@H](C2CCCC2)N(C)C(=O)C2(CCCC2)NC(=O)[C@@H]2CCCN2C(=O)[C@H](CCc2ccc(C(F)(F)F)c(Cl)c2)NC(=O)[C@@H](C)N(C)C(=O)[C@H](Cc2ccccc2Cl)N(C)C(=O)[C@@H]2CCN2C(=O)[C@H](C)N(C)C1=O` [Compound 464] (cyclo([Ac5c][NMeGly(cPent)][d(β3hA)][NMeA]I[NMeA][Aze][NMePhe(2-Cl)][dNMeA][hPhe(3-Cl-4-CF3)]P)) to `CC[C@H](C)[C@@H]1NC(=O)[C@H](CC(C)C)N(C)C(=O)C[C@@H](C)NC(=O)[C@H](C2CCCC2)N(C)C(=O)C2(CCCC2)NC(=O)[C@@H]2CCCN2C(=O)[C@H](CCc2ccc(C(F)(F)F)c(Cl)c2)NC(=O)[C@@H](C)N(C)C(=O)[C@H](CC2CCCCC2)N(C)C(=O)[C@@H]2CCN2C(=O)CN(C)C1=O` [Compound 1531] (cyclo([Ac5c][NMeGly(cPent)][d(β3hA)][NMeL]I[Sar][Aze][NMeCha][dNMeA][hPhe(3-Cl-4-CF3)]P)), the IC50 rises from 130 nM to 230 nM (1.8-fold).

Compared with `CC[C@H](C)[C@@H]1NC(=O)[C@H](C)N(C)C(=O)C[C@@H](C)NC(=O)[C@H](CC(C)C)N(C)C(=O)C(C)(C)NC(=O)[C@H](CC(C)C)N(C)C(=O)[C@H](CCc2ccc(C(F)(F)F)cc2)NC(=O)CN(C)C(=O)[C@H]([C@@H](C)OCc2ccccc2)N(C)C(=O)CN(C)C(=O)CN(C)C1=O` [Compound 1067] (cyclo([Aib][NMeL][d(β3hA)][NMeA]I[Sar][Sar][NMeT](Bn)[Sar][hPhe(4-CF3)][NMeL])), `CC[C@H](C)[C@@H]1NC(=O)[C@H](CC(C)C)N(C)C(=O)C[C@@H](C(=O)N2CCCCC2)N(C)C(=O)[C@H](C(C)C)N(C)C(=O)C2(CCCC2)NC(=O)[C@@H]2CCCN2C(=O)[C@H](CCc2ccc(C(F)(F)F)c(Cl)c2)NC(=O)CN(C)C(=O)[C@H](CCCCC(F)F)N(C)C(=O)[C@@H]2CCN2C(=O)[C@H](C)N(C)C1=O` [Compound 78] ([NMeL]I[NMeA][Aze][NMeNle(6-CHF2)][Sar][hPhe(3-Cl-4-CF3)]P[Ac5c][NMeV][NMeD]-Piperidide; lactam N-11) is 180-fold lower in IC50: 290 nM for the first, 1.6 nM for the second. The second is the more potent here.
